Data reported in patent publication US20240082228A1, “SARS-COV-2 THERAPEUTICS” (priority 2021, published 2024).
Several values for one entry are separate records, joined by “and”; a condition that tells them apart may be missing. Identical values can stand only once. Like-named read-outs stand apart in the source and are kept apart here.

How the values were obtained:
HEK293T-ACE2 cells = conditions: up to 10 mM compound
SARS-CoV-2 [1] = format: cell-based; conditions: HEK293T cells stably expressing ACE2
GABAA receptors = conditions: cited from earlier work
[2] = target: benzodiazepine binding site of human GABAA receptors containing either an α1, α2, α3 or α5 subunit; conditions: read-out: affinity; cited from earlier work
SARS-CoV-2 [3] = experiment: microbe, parasite or virus in culture; format: cell-based; conditions: for % Infection (1 uM) / % Infection (5 uM): single replicate of triplicate; for Normalized Infection (1 uM) / log2FC Infection (1 uM) / Normalized Infection (5 uM) / log2FC Infection (5 uM): single replicate, relative to negative control DMSO; for HIT: overall, 1 or 5 uM
[4] = for Average Cell Number (1 uM) / Cell Number (1 uM) / Normalized Cell Number (1 uM): compound at 1 uM; for Average Cell Number (1 uM) / Average Cell Number (5 uM): average of normalized cell number, n=3, relative to DMSO; for Cell Number (1 uM) / Normalized Cell Number (1 uM) / Cell Number (5 uM) / Normalized Cell Number (5 uM): single replicate; for Cell Number (1 uM) / Cell Number (5 uM): raw cell count; for Normalized Cell Number (1 uM) / Normalized Cell Number (5 uM): relative to negative control DMSO; for Average Cell Number (5 uM) / Cell Number (5 uM) / Normalized Cell Number (5 uM): compound at 5 uM

Molecule	cytotoxicity (HEK293T-ACE2 cells)	antiviral activity (SARS-CoV-2 [1])	Average Infection (1 uM) (SARS-CoV-2 [3])	Average Infection (5 uM) (SARS-CoV-2 [3])	HIT (2 Std, 1 uM) (SARS-CoV-2 [3]; 1 uM)	% Infection (1 uM) (SARS-CoV-2 [3]; 1 uM)	Normalized Infection (1 uM) (SARS-CoV-2 [3]; 1 uM)	log2FC Infection (1 uM) (SARS-CoV-2 [3]; 1 uM)	% Infection (5 uM) (SARS-CoV-2 [3]; 5 uM)	Normalized Infection (5 uM) (SARS-CoV-2 [3]; 5 uM)	log2FC Infection (5 uM) (SARS-CoV-2 [3]; 5 uM)	HIT (SARS-CoV-2 [3])	Toxic (1 uM) [4]	Toxic (5 uM) [4]	Average Cell Number (1 uM) [4]	Cell Number (1 uM) [4]	Normalized Cell Number (1 uM) [4]	Average Cell Number (5 uM) [4]	Cell Number (5 uM) [4]	Normalized Cell Number (5 uM) [4]	further results
CN[C@@H](C)C(=O)N[C@H](C(=O)N1CCC[C@H]1C(=O)N[C@H]1c2ccccc2C[C@H]1OCC#CC#CCO[C@@H]1Cc2ccccc2[C@@H]1NC(=O)[C@@H]1CCCN1C(=O)[C@@H](NC(=O)[C@H](C)NC)C1CCCCC1)C1CCCCC1 [AZD5582]	no observable cytotoxicity	excellent activity	–	–	–	–	–	–	–	–	–	–	–	–	–	–	–	–	–	–	–
CN[C@@H](C)C(=O)N[C@H]1CCS[C@H]2CC(C)(C)[C@@H](C(=O)N[C@H]3c4ccccc4C[C@H]3OCC#CC#CCO[C@@H]3Cc4ccccc4[C@@H]3NC(=O)[C@H]3N4C(=O)[C@@H](NC(=O)[C@H](C)NC)CCS[C@H]4CC3(C)C)N2C1=O [Ciapavir]	no observable cytotoxicity	excellent activity	–	–	–	–	–	–	–	–	–	–	–	–	–	–	–	–	–	–	–
CC(C)CCC(=O)CC1c2ccccc2C(=O)N1c1ccc2ccc(Cl)nc2n1 (centres unmarked) [Pagoclone]	–	–	–	–	–	–	–	–	–	–	–	–	–	–	–	–	–	–	–	–	efficacy at α1-, α2- and α5-containing GABAA receptors (GABAA receptors; α1-, α2- and α5-containing): partial agonist; efficacy at receptors containing an α3 subunit (GABAA receptors; α3 subunit): full agonist; Ki [2]: 0.7 to 9.1 nM
cefonicid	–	–	−0.4929	0.04523	HIT	19.07% and 19.19% and 17.78%	0.7259 and 0.7305 and 0.6768	−0.4622 and −0.4531 and −0.5633	16.97% and 13.67% and 17.29%	1.102 and 0.8875 and 1.123	0.1402 and −0.1722 and 0.1676	Yes	0 (non-toxic (Normalized Cell number>0.65)	0 (non-toxic (Normalized Cell number>0.65)	0.9122	5339 and 5337 and 5361	0.9111 and 0.9108 and 0.9148	0.9876	5781 (2×) and 5996	0.9755 (2×) and 1.012	–
lonafarnib	–	–	−0.6667	−1.3	HIT	17.44% and 15.37%	0.6641 and 0.5853	−0.5906 and −0.7727	6.304% and 5.672% and 6.839%	0.4094 and 0.3683 and 0.4442	−1.288 and −1.441 and −1.171	Yes	0 (non-toxic (Normalized Cell number>0.65)	–	0.6561	3801 and 4072 and 3662	0.6486 and 0.6949 and 0.6249	0.6416	3696 and 3879 and 3831	0.6546 and 0.6465	HIT (2 Stdv, 5 uM) (SARS-CoV-2 [3]; 5 uM): HIT
osanetant	–	–	–	–	HIT	13.75% and 14.37% and 16.0359%	0.5233 and 0.547 and 0.6105	−0.9343 and −0.8703 and −0.7119	0.9628% and 1.307% and 0.7276%	0.06253 and 0.08489 and 0.04725	−3.999 and −3.558 and −4.403	Yes	0 (non-toxic (Normalized Cell number>0.65)	0 (non-toxic (Normalized Cell number>0.65)	0.6882	4045 and 3932 and 4122	0.6903 and 0.671 and 0.7034	0.7783	4466 and 4973 and 4398	0.7536 and 0.8392 and 0.7421	Average Infection (1 uM) (SARS-CoV-2 [3]; 1 uM, average log2FC infection (n=3) relative to DMSO): −0.8388; HIT (2 Stdv, 5 uM) (SARS-CoV-2 [3]; 5 uM): HIT; Average Infection (5 uM) (SARS-CoV-2 [3]; 5 uM, average log2FC infection (n=3) relative to DMSO): −3.987
